We go through 30 compounds from ChEMBL document CHEMBL5331094, “Identification of 2,4,5-trisubstituted-2,4-dihydro-3H-1,2,4-triazol-3-one-based small molecules as selective BRD9 binders” (Eur J Med Chem, 2023).

The target in data set [1] is T1, Bromodomain-containing protein 9 (Homo sapiens) (UniProt Q9H8M2).
T1 sequence (whole entry): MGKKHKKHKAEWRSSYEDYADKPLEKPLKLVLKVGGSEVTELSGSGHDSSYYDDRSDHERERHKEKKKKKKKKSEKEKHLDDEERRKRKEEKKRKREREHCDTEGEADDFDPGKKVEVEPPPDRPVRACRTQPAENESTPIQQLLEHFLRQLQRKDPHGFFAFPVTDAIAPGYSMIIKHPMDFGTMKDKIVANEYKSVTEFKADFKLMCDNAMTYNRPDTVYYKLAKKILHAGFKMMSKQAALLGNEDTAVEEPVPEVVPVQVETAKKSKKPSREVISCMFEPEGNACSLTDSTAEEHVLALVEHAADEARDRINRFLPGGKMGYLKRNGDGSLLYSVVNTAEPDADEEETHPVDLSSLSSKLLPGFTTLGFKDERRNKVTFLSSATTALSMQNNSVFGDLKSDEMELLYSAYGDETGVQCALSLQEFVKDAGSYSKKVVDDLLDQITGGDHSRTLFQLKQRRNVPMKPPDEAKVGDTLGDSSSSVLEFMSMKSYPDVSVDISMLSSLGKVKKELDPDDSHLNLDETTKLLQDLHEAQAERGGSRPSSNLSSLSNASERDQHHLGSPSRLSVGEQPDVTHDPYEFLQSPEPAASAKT
Briefly: Binding affinity of GST-tagged BRD9 domain (unknown origin) to histone H4Ac (1 to 21 residues) assessed as residual binding at 10 uM by alphascreen analysis relative to control. On the technique in general: Alpha assays give light when donor and acceptor beads are brought close together.

The test system of a further data set is Caco-2. Kind of data set: Cytotoxicity against human Caco-2 cells assessed as cell viability measured after 24 hrs by MTT assay. The class given is functional, cell-based. The following applies: Caco-2, 24 h. (In general: Tetrazolium dyes change colour on reduction, which living cells bring about.)
The nature of data set [2]: Cytotoxicity against human erythrocytes assessed as cell viability measured after 24 hrs by MTT assay. The class given is toxicity, cell-based, Erythrocyte.
A further data set relates to HaCaT. Briefly: Cytotoxicity against human HaCaT cells assessed as cell viability measured after 24 hrs by MTT assay. The class given is functional, cell-based.
For data set [3], the target named is Bromodomain-containing protein 4 (Homo sapiens) (UniProt O60885). Kind of data set: Binding affinity of recombinant His-tagged BRD4-BD1 (unknown origin) to histone H4Ac (1 to 21 residues) K5/8/12/Ac-Biotin-OH assessed as residual binding at 10 uM incubated for 30 mins by alphascreen analysis relative to control.
The next data set concerns Jurkat. Briefly: Cytotoxicity against human Jurkat cells assessed as cell viability measured after 24 hrs by MTT assay. The data set is classed as functional, cell-based.
The target in data set [4] is Bromodomain-containing protein 3 (Homo sapiens) (UniProt Q15059). Kind of data set: Binding affinity of recombinant His-tagged BRD3-BD1 (unknown origin) to histone H4Ac (1 to 21 residues) K5/8/12/Ac-Biotin-OH assessed as residual binding at 10 uM incubated for 30 mins by alphascreen analysis relative to control.
The target is the same in data set [5]. Briefly: Binding affinity of recombinant His-tagged BRD3-BD2 (unknown origin) to histone H4Ac (1 to 21 residues) K5/8/12/Ac-Biotin-OH assessed as residual binding at 10 uM incubated for 30 mins by alphascreen analysis relative to control.
Data set [6] concerns the target Bromodomain-containing protein 4 (Homo sapiens) (UniProt O60885). Briefly: Binding affinity of recombinant His-tagged BRD4-BD2 (unknown origin) to histone H4Ac (1 to 21 residues) K5/8/12/Ac-Biotin-OH assessed as residual binding at 10 uM incubated for 30 mins by alphascreen analysis relative to control.
Data set [7] deals with T2, Bromodomain-containing protein 9 (Homo sapiens, UniProt Q9H8M2).
T2 sequence (Q9H8M2 whole entry): T1 sequence (whole entry)
Briefly: Inhibition of BRD9 (unknown origin) by alpha screen analysis.

In data set [8] the target is Bromodomain-containing protein 2 (Homo sapiens) (UniProt P25440). Kind of data set: Binding affinity of recombinant His-tagged BRD2-BD2 (unknown origin) to histone H4Ac (1 to 21 residues) K5/8/12/Ac-Biotin-OH assessed as residual binding at 10 uM incubated for 30 mins by alphascreen analysis relative to control.
For the next data set, the system named is A-375. Kind of data set: Cytotoxicity against human A-375 cells assessed as cell viability measured after 24 hrs by MTT assay. To be noted: A-375, 24 h. The class given is functional, cell-based.
The target in data set [9] is Bromodomain adjacent to zinc finger domain protein 2B (Homo sapiens) (UniProt Q9UIF8). Briefly: Binding affinity of recombinant His-tagged BAZ2B (unknown origin) to histone H3 (1 to 21 residues) K9/14Ac-Biotin-OH assessed as residual binding at 10 uM incubated for 30 mins by alphascreen analysis relative to control.
The subject of another data set is MCF7. Kind of data set: Cytotoxicity against human MCF7 cells assessed as cell viability measured after 24 hrs by MTT assay. The following applies: MCF7, 24 h. The class given is functional, cell-based.
Data set [10] addresses Bromodomain testis-specific protein (Homo sapiens) (UniProt Q58F21). Kind of data set: Binding affinity of recombinant His-tagged BRDT-BD1 (unknown origin) to histone H4Ac (1 to 21 residues) K5/8/12/Ac-Biotin-OH assessed as residual binding at 10 uM incubated for 30 mins by alphascreen analysis relative to control.
In data set [11] the target is Bromodomain-containing protein 2 (Homo sapiens) (UniProt P25440). Kind of data set: Binding affinity of recombinant His-tagged BRD2-BD1 (unknown origin) to histone H4Ac (1 to 21 residues) K5/8/12/Ac-Biotin-OH assessed as residual binding at 10 uM incubated for 30 mins by alphascreen analysis relative to control.
For data set [12], the target named is CREB-binding protein (Homo sapiens) (UniProt Q92793). Briefly: Binding affinity of recombinant His-tagged CREBBP (unknown origin) to histone H4Ac (1 to 21 residues) K5/8/12/Ac-Biotin-OH assessed as residual binding at 10 uM incubated for 30 mins by alphascreen analysis relative to control.

Chain of Bromodomain-containing protein 3 (Homo sapiens) (Q15059 2-726 limits assumed): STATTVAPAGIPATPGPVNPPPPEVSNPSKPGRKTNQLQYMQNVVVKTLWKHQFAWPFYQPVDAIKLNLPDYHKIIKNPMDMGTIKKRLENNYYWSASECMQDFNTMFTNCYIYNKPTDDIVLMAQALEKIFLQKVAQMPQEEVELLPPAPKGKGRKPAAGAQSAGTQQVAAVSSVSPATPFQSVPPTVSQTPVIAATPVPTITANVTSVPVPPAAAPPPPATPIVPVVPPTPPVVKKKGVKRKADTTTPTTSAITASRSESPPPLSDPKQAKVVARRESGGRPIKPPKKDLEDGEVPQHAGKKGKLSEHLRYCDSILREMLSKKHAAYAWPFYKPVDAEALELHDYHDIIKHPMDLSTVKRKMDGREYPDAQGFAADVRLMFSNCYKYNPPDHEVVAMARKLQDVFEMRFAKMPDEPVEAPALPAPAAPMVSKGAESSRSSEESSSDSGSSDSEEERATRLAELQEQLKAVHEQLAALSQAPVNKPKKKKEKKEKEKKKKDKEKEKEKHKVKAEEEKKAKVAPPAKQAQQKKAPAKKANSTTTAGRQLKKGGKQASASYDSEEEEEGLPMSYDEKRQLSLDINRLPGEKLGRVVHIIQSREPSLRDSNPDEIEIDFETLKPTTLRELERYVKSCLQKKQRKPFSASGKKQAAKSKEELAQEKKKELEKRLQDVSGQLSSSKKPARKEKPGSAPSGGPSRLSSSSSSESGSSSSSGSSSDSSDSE
Chain of Bromodomain adjacent to zinc finger domain protein 2B (Homo sapiens) (Q9UIF8 whole entry, the tested form may be a part): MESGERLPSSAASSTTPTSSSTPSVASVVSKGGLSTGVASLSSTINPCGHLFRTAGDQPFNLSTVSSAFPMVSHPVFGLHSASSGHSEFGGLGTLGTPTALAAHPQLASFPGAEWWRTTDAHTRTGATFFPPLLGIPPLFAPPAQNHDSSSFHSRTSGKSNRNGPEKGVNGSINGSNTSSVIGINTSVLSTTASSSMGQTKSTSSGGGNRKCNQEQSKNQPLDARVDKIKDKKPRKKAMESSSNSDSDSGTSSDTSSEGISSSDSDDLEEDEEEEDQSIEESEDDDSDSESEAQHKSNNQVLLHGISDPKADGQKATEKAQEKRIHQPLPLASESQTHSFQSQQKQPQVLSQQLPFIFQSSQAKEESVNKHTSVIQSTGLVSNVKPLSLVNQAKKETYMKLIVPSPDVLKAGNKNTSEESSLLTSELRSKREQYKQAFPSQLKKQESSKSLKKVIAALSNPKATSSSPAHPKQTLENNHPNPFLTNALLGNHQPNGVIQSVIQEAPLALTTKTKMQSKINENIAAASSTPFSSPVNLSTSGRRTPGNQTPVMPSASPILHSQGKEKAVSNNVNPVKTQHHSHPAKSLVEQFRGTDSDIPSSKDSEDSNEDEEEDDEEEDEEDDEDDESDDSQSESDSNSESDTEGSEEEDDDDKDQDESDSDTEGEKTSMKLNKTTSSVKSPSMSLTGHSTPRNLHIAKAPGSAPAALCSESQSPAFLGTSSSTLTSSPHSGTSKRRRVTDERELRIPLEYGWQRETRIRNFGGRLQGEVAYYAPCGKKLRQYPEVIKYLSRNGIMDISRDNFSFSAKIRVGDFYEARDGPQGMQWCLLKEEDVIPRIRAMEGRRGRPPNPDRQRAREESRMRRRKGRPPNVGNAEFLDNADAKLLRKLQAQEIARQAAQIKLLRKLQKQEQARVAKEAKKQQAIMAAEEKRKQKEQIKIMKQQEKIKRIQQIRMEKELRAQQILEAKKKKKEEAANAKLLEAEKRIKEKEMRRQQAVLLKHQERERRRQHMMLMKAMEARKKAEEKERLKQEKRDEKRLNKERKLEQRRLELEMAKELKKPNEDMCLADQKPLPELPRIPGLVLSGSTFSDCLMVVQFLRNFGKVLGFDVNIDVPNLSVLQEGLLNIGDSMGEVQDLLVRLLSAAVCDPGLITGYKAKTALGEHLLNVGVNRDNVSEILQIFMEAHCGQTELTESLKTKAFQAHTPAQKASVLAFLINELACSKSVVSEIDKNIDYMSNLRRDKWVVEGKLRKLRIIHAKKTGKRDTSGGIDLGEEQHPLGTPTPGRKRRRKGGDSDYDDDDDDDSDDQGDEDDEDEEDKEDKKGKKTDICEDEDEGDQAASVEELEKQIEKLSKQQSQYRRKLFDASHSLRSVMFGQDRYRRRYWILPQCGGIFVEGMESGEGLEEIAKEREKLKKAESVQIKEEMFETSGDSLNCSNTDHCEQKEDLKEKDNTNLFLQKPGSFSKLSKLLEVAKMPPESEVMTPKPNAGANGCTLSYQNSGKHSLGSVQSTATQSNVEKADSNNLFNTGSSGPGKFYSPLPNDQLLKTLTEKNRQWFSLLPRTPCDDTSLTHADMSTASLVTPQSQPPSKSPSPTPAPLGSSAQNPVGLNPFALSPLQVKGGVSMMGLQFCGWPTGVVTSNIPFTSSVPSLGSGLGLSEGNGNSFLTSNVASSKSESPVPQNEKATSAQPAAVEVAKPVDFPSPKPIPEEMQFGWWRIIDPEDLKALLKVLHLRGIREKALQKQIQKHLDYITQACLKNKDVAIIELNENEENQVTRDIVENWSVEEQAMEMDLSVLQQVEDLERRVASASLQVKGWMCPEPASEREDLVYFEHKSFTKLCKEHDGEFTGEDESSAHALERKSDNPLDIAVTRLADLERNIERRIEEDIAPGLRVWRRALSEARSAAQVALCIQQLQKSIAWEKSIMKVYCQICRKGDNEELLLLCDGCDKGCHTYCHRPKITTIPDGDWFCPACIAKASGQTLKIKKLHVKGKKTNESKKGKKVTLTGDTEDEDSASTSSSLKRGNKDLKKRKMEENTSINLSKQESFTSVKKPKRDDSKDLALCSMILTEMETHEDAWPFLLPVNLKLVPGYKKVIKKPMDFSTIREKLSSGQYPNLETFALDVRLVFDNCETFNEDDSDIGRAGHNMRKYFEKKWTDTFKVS
Chain of Bromodomain-containing protein 2 (Homo sapiens) (P25440 whole entry, looked up, the tested form may be a part): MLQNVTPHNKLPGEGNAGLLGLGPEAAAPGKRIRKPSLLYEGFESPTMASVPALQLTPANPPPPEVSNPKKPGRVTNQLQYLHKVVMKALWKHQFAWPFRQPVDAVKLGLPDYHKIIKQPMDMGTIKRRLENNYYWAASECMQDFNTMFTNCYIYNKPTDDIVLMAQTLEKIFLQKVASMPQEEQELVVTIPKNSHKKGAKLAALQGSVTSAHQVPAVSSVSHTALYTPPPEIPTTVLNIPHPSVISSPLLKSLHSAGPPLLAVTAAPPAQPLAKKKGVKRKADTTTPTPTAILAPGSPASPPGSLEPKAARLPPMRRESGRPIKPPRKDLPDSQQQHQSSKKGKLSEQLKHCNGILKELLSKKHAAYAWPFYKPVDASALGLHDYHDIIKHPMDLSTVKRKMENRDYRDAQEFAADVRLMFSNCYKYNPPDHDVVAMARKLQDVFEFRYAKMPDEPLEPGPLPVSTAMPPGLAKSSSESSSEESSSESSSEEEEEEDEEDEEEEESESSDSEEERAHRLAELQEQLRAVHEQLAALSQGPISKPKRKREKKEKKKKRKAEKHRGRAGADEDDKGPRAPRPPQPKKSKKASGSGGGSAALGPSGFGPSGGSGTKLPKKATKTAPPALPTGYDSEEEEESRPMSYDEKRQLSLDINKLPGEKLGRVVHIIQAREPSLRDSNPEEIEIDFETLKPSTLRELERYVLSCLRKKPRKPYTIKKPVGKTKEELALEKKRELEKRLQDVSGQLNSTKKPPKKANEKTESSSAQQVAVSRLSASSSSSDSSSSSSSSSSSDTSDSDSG

Turning to `Cc1n[nH]c(=O)n1-c1ccc(F)c(C(F)(F)F)c1`, the Activity in data set [1] is 97.8%.
For the compound `CCc1nn(CC)c(=O)n1-c1ccc(OC)c(OC)c1`, in data set [1], the Activity is greater than 100%.
With `Cc1nnc(O)n1-c1ccc(C(C)(C)C)cc1`, in data set [1], the Activity is greater than 100%.
Consider `Cc1ccc(-n2c(C)n[nH]c2=O)cc1`, for which the Activity in [1] was greater than 100%.
In the case of `CCc1n[nH]c(=O)n1-c1ccc(F)c(C)c1`, the Activity in [1] came to 94.9%.
For `CCc1nn(CC)c(=O)n1-c1cccc(C(F)(F)F)c1`, the half-maximal inhibitory concentration (IC50) with Caco-2 is greater than 500 µM; in the data set on HaCaT, greater than 500 µM; with Jurkat, 270 µM; in data set [7], 2.49 µM; in the data set on A-375, greater than 500 µM; with MCF7, 490 µM. Also, the IC50 at 24 h in data set [2] was greater than 500 µM. Further, the Activity in [3] was 97.7%; in data set [4], greater than 100%; in data set [5], 97.4%; in data set [6], greater than 100%; in data set [8], greater than 100%; in data set [1], 39.4%. Besides, the Activity was greater than 100% in data set [9], 98.3% in data set [10], 99% in [11] and greater than 100% in data set [12].
In the case of `CCc1n[nH]c(=O)n1-c1ccc(C)c(C)c1`, the Activity in data set [1] turned out to be 97.2%.
For the compound `CCc1n[nH]c(=O)n1-c1ccc(Cl)c(F)c1`, the Activity in [1] turned out to be 91.8%.
For the compound `CCc1nn(CC)c(=O)n1-c1ccc2c(c1)OCO2`, the Activity in [1] is 91.2%.
In the case of `CCc1n[nH]c(=O)n1-c1ccc(C)c(Cl)c1`, the Activity in [1] came out at 97.5%.
With `Cc1cccc(-n2c(C)nn(C)c2=O)c1`, the Activity in data set [1] came out at 86.7%.
As for `COc1ccc(-n2c(C)nn(C)c2=O)cc1OC`, the IC50 in the data set on Caco-2 is 300 µM; in the data set with HaCaT it was greater than 500 µM; in the data set with Jurkat, 110 µM; in data set [7], 0.35 µM; in the data set with A-375, 450 µM; in the data set with MCF7 it was greater than 500 µM. Besides, the IC50 at 24 h in data set [2] is greater than 500 µM. Moreover, the Activity is greater than 100% in data set [3]; greater than 100% in [4]; greater than 100% in [5]; 94.7% in data set [6]; greater than 100% in [8]; 28.1% in data set [1]. The Activity in [9] was greater than 100%; in data set [10], greater than 100%; in [11] it was 96.5%; in data set [12] it was 96.3%.
As for `Cc1nn(C)c(=O)n1-c1ccc(C(C)(C)C)cc1`, the Activity in data set [1] amounted to 95.7%.
For the compound `CCc1nn(C)c(=O)n1-c1cccc(C(F)(F)F)c1`, in data set [1], the Activity is 76.5%.
With `CCc1ccc(-n2c(CC)n[nH]c2=O)cc1`, the Activity in [1] worked out at 97.1%.
For `CCn1nc(C)n(-c2ccc(F)c(Cl)c2)c1=O`, the concentration for half-maximal inhibition (IC50) in the data set on Caco-2 is greater than 500 µM; in the data set on HaCaT, greater than 500 µM; in the data set with Jurkat, greater than 500 µM; in data set [7] it was 4.01 µM; in the data set with A-375, 450 µM; in the data set with MCF7, greater than 500 µM. The IC50 at 24 h in data set [2] is greater than 500 µM. The Activity in data set [3] is 99%; in data set [4], greater than 100%; in data set [5] it was 93.3%; in data set [6] it was greater than 100%; in data set [8], greater than 100%; in [1], 41.2%. In addition, the Activity is greater than 100% in data set [9], 98.3% in data set [10], 98.2% in data set [11] and greater than 100% in [12].
On to `Cc1nn(C)c(=O)n1-c1ccc2c(c1)OCO2`, for which the IC50 was 370 µM in the data set on Caco-2; greater than 500 µM in the data set on HaCaT; 290 µM with Jurkat; 11.1 µM in data set [7]; 400 µM in the data set with A-375; 400 µM in the data set with MCF7. The IC50 at 24 h in data set [2] is greater than 500 µM. In addition, the Activity in data set [3] was greater than 100%; in [4], 97.3%; in [5], 94.9%; in [6], 99.3%; in data set [8], 94.4%; in data set [1], 58.8%. Moreover, the Activity in data set [9] was 92.8%; in data set [10] it was 92.5%; in [11], greater than 100%; in data set [12], greater than 100%.
For `CCc1nn(CC)c(=O)n1-c1ccc(F)c(Cl)c1`, the Activity in [1] is 86.6%.
Consider `CCc1n[nH]c(=O)n1-c1ccc2c(c1)OCO2`, for which the Activity in data set [1] is 84.6%.
As to `CCc1nn(C)c(=O)n1C1CCCCC1`, in data set [1], the Activity was 64.3%.
Regarding `CCc1nn(C)c(=O)n1-c1ccc(OC)c(OC)c1`, the IC50 in the data set with Caco-2 was greater than 500 µM; in the data set with HaCaT, greater than 500 µM; in the data set with Jurkat, 420 µM; in [7], 4.13 µM; with A-375, 480 µM; with MCF7 it was greater than 500 µM. Moreover, in data set [2], the IC50 at 24 h was greater than 500 µM. The Activity in data set [3] was greater than 100%; in data set [4], 97.3%; in data set [5], 97.7%; in [6], 89.4%; in data set [8], 96.7%; in [1], 38.1%. Further, the Activity in data set [9] was greater than 100%; in data set [10] it was 95.6%; in data set [11], greater than 100%; in data set [12], greater than 100%.
For the compound `CCc1n[nH]c(=O)n1-c1cccc(C(F)(F)F)c1`, the Activity in [1] was 96.1%.
On to `CCn1nc(C)n(-c2ccc3c(c2)OCO3)c1=O`, for which the IC50 is greater than 500 µM in the data set with Caco-2; greater than 500 µM in the data set on HaCaT; greater than 500 µM in the data set with Jurkat; 5.44 µM in data set [7]; greater than 500 µM in the data set with A-375; greater than 500 µM in the data set with MCF7. The IC50 at 24 h in [2] is greater than 500 µM. Further, the Activity in [3] is 96.2%; in data set [4] it was 74.8%; in [5] it was 99.9%; in [6] it was 99.2%; in data set [8], greater than 100%; in [1], 35.6%. The Activity is 97.5% in data set [9], greater than 100% in [10], greater than 100% in [11] and greater than 100% in [12].
Turning to `COc1ccc(-n2c(C)nnc2O)cc1OC`, the Activity in data set [1] worked out at 73.6%.
In the case of `Cc1nn(C)c(=O)n1-c1ccc(F)c(C(F)(F)F)c1`, in data set [1], the Activity was 85.3%.
With `Cc1cc(-n2c(C)n[nH]c2=O)ccc1F`, the Activity in data set [1] was greater than 100%.
For the compound `Cc1nn(C)c(=O)n1C1CCCCC1`, the Activity in data set [1] amounted to 77.9%.
Regarding `CCc1n[nH]c(=O)n1-c1ccc(OC)c(OC)c1`, the Activity in data set [1] stood at 96.9%.
On to `Cc1cccc(-n2c(C)n[nH]c2=O)c1`, for which, in data set [1], the Activity is greater than 100%.
With `CCc1nn(C)c(=O)n1-c1ccc(C)c(C)c1`, in data set [1], the Activity is 85.1%.

The term IC50 denotes the concentration at which inhibition is half-maximal.
